Experimental findings from ChEMBL document CHEMBL1151720, “Citreamicins with potent gram-positive activity” (J Nat Prod, 2008) are described below.

Converted amounts (≈) assume the structure as drawn.

Series [1] concerns Staphylococcus aureus. Briefly: Antimicrobial activity against methicillin-resistant Staphylococcus aureus 43300. It is filed as functional.
The subject of series [2] is Staphylococcus aureus. Briefly: Antimicrobial activity against methicillin-susceptible Staphylococcus aureus 6538. The class given is functional.
Series [3] concerns Staphylococcus aureus. As to the kind of experiment: Antimicrobial activity against methicillin-susceptible Staphylococcus aureus 29213. The class given is functional.
Series [4] concerns Staphylococcus aureus. As to the kind of experiment: Antimicrobial activity against methicillin-resistant Staphylococcus aureus 1137. The class given is functional.
In series [5] the test system is Staphylococcus aureus. Briefly: Antimicrobial activity against vancomycin-intermediate Staphylococcus aureus 2012. It is filed as functional.
In series [6] the test system is Staphylococcus aureus. As to the kind of experiment: Antimicrobial activity against linezolid-resistant methicillin-resistant Staphylococcus aureus 1725. It is filed as functional.
The next series has as its system Enterococcus faecium. As to the kind of experiment: Antimicrobial activity against vancomycin-resistant Enterococcus faecium 700221 clinical isolate. The class given is functional.
Series [7] has as its system Streptococcus pneumoniae. As to the kind of experiment: Antimicrobial activity against penicillin-susceptible Streptococcus pneumoniae 975. It is filed as functional.
In series [8] the test system is Streptococcus pneumoniae. Briefly: Antimicrobial activity against penicillin-resistant Streptococcus pneumoniae 940. It is filed as functional.
Series [9] has as its system Streptococcus pneumoniae. Briefly: Antimicrobial activity against quinolone-resistant Streptococcus pneumoniae 376. It is filed as functional.
The next series deals with Haemophilus influenzae. Briefly: Antimicrobial activity against ampicillin-resistant Haemophilus influenzae 1742. The class given is functional.
For series [10], the system named is Haemophilus parainfluenzae. As to the kind of experiment: Antimicrobial activity against Haemophilus parainfluenzae 2319. The class given is functional.
Series [11] relates to Escherichia coli. As to the kind of experiment: Antimicrobial activity against Escherichia coli 1411. The class given is functional.
Series [12] relates to Escherichia coli. Briefly: Antimicrobial activity against Escherichia coli 25922 QC. It is filed as functional. Conditions: ATCC25922.
Series [13] deals with Escherichia coli. As to the kind of experiment: Antimicrobial activity against extended spectrum beta-lactamase producing Escherichia coli 2269. The class given is functional.
In series [14] the test system is Klebsiella pneumoniae. Briefly: Antimicrobial activity against Klebsiella pneumoniae 2239. It is filed as functional.
Series [15] concerns Klebsiella pneumoniae. As to the kind of experiment: Antimicrobial activity against ampC beta-lactamase producing multidrug-resistant Klebsiella pneumoniae 2262. It is filed as functional.
For the next series, the system named is Moraxella catarrhalis. Briefly: Antimicrobial activity against Moraxella catarrhalis 557. It is filed as functional.
Another series concerns Serratia marcescens. As to the kind of experiment: Antimicrobial activity against Serratia marcescens 1635. The class given is functional.
A further series deals with Pseudomonas aeruginosa. Briefly: Antimicrobial activity against Pseudomonas aeruginosa 1473. The class given is functional.
Series [16] in a line: Cytotoxicity against human Hep G2 cells assessed as cell viability measured by change in ATP level after 48 hrs. It is filed as functional. Particulars: HepG2, 48 h.
A short description of series [17]: Cytotoxicity against NHDF cells assessed as cell viability measured by change in ATP level after 48 hrs. Conditions: human. It is filed as cell-based.

Regarding `COc1ccc2oc3c(O)c4c(c(O)c3c(=O)c2c1O)-c1c(cc2c(c1O)C(=O)N1C(C)(C2)OC(=O)C1(C)CO)CC4` (stereo not drawn) [CITREAMICIN EPSILON], the MIC in the series with Staphylococcus aureus [1] was 0.13 µg/mL (≈ 0.226 µM); in the series with Staphylococcus aureus [2], 0.13 µg/mL (≈ 0.226 µM); in the series on Staphylococcus aureus [3], 0.12 µg/mL (≈ 0.209 µM); in the series on Staphylococcus aureus [4], 0.25 µg/mL (≈ 0.434 µM); against Staphylococcus aureus [5], 0.25 µg/mL (≈ 0.434 µM); against Staphylococcus aureus [6] it was 0.12 µg/mL (≈ 0.209 µM). In addition, the MIC in the series on Enterococcus faecium was 0.5 µg/mL (≈ 0.869 µM); with Streptococcus pneumoniae [7], 0.25 µg/mL (≈ 0.434 µM); against Streptococcus pneumoniae [8], 0.12 µg/mL (≈ 0.209 µM); against Streptococcus pneumoniae [9], 0.25 µg/mL (≈ 0.434 µM); in the series on Haemophilus influenzae it was above 32 µg/mL; in series [10], above 32 µg/mL. Besides, the MIC in the series with Escherichia coli [11] is above 64 µg/mL; with Escherichia coli [12] it was above 32 µg/mL; against Escherichia coli [13], above 32 µg/mL; against Klebsiella pneumoniae [14], above 32 µg/mL; against Klebsiella pneumoniae [15], above 32 µg/mL; against Moraxella catarrhalis, 0.5 µg/mL (≈ 0.869 µM). Moreover, the MIC with Serratia marcescens and in the series on Pseudomonas aeruginosa was above 32 µg/mL throughout. The CC90 in series [16] worked out at 1 µg/mL (≈ 1.74 µM). The CC90 at 48 h in [17] is 0.1 µg/mL (≈ 0.174 µM).
`CC(=O)NC[C@H]1CN(c2ccc(N3CCOCC3)c(F)c2)C(=O)O1` [LINEZOLID]: the MIC with Staphylococcus aureus [1] worked out at 1 µg/mL (≈ 2.96 µM); with Staphylococcus aureus [2] it was 0.5 µg/mL (≈ 1.48 µM); with Staphylococcus aureus [5] it was 1 µg/mL (≈ 2.96 µM); against Streptococcus pneumoniae [8] it was 0.25 µg/mL (≈ 0.741 µM); in the series on Haemophilus influenzae, 8 µg/mL (≈ 23.7 µM); in [10], 16 µg/mL (≈ 47.4 µM). Also, the MIC was above 64 µg/mL against Escherichia coli [12]; above 64 µg/mL with Escherichia coli [13]; above 64 µg/mL with Klebsiella pneumoniae [14]; 4 µg/mL (≈ 11.9 µM) in the series on Moraxella catarrhalis; above 64 µg/mL with Serratia marcescens; above 64 µg/mL with Pseudomonas aeruginosa.
For the molecule `CCCCCCCCCC(=O)N[C@@H](Cc1c[nH]c2ccccc12)C(=O)N[C@H](CC(N)=O)C(=O)N[C@@H](CC(=O)O)C(=O)N[C@@H]1C(=O)NCC(=O)N[C@@H](CCCN)C(=O)N[C@@H](CC(=O)O)C(=O)N[C@H](C)C(=O)N[C@@H](CC(=O)O)C(=O)NCC(=O)N[C@H](CO)C(=O)N[C@@H]([C@H](C)CC(=O)O)C(=O)N[C@@H](CC(=O)c2ccccc2N)C(=O)O[C@@H]1C`, the MIC was 1 µg/mL (≈ 0.617 µM) in the series on Staphylococcus aureus [3]; 1 µg/mL (≈ 0.617 µM) in the series on Staphylococcus aureus [4]; 8 µg/mL (≈ 4.94 µM) with Staphylococcus aureus [5]; 1 µg/mL (≈ 0.617 µM) against Staphylococcus aureus [6]; 0.25 µg/mL (≈ 0.154 µM) against Streptococcus pneumoniae [7]; 0.25 µg/mL (≈ 0.154 µM) in the series with Streptococcus pneumoniae [8]. Moreover, the MIC is 0.25 µg/mL (≈ 0.154 µM) in the series with Streptococcus pneumoniae [9]; above 64 µg/mL against Haemophilus influenzae; above 64 µg/mL in series [10]; above 64 µg/mL against Escherichia coli [12]; above 64 µg/mL against Escherichia coli [13]; above 64 µg/mL with Klebsiella pneumoniae [14]. Further, the results for the MIC with Moraxella catarrhalis, in the series with Serratia marcescens and against Pseudomonas aeruginosa were 16 µg/mL (≈ 9.87 µM), above 64 µg/mL and above 64 µg/mL, respectively.
`C[C@@H](O)[C@H]1C(=O)N2C(C(=O)O)=C(S[C@@H]3CN[C@H](C(=O)N(C)C)C3)[C@H](C)[C@H]12` [MEROPENEM]: the MIC was 0.25 µg/mL (≈ 0.652 µM) in the series with Staphylococcus aureus [3]; above 4 µg/mL against Staphylococcus aureus [5]; 0.25 µg/mL (≈ 0.652 µM) against Staphylococcus aureus [6]; 0.015 µg/mL (≈ 0.0391 µM) in the series with Streptococcus pneumoniae [7]; 1 µg/mL (≈ 2.61 µM) with Streptococcus pneumoniae [8]; 0.015 µg/mL (≈ 0.0391 µM) against Streptococcus pneumoniae [9]. Moreover, the MIC is 0.06 µg/mL (≈ 0.156 µM) with Haemophilus influenzae; 0.03 µg/mL (≈ 0.0782 µM) in series [10]; 0.03 µg/mL (≈ 0.0782 µM) with Escherichia coli [12]; 0.03 µg/mL (≈ 0.0782 µM) in the series on Escherichia coli [13]; 0.06 µg/mL (≈ 0.156 µM) with Klebsiella pneumoniae [14]; above 64 µg/mL against Klebsiella pneumoniae [15]. The MIC against Moraxella catarrhalis was at most 0.004 µg/mL; against Serratia marcescens, 0.06 µg/mL (≈ 0.156 µM); with Pseudomonas aeruginosa, 4 µg/mL (≈ 10.4 µM).
In the case of `COc1ccc2oc3c(c(=O)c2c1O)C(=O)c1c(ccc2cc4c(c(O)c12)C(=O)N1C(C)(C4)OC(=O)C1(C)CO)C3=O` (stereo not drawn) [CITREAMICIN DELTA], the MIC in the series with Staphylococcus aureus [1] was 0.5 µg/mL (≈ 0.875 µM); against Staphylococcus aureus [2] it was at most 0.5 µg/mL; against Staphylococcus aureus [3] it was 1 µg/mL (≈ 1.75 µM); in the series with Staphylococcus aureus [4] it was 2 µg/mL (≈ 3.5 µM); against Staphylococcus aureus [5], 2 µg/mL (≈ 3.5 µM); in the series with Staphylococcus aureus [6], 1 µg/mL (≈ 1.75 µM). Further, the MIC was at most 0.25 µg/mL against Enterococcus faecium; at most 0.06 µg/mL against Streptococcus pneumoniae [7]; 1 µg/mL (≈ 1.75 µM) against Haemophilus influenzae; 1 µg/mL (≈ 1.75 µM) in series [10]; above 128 µg/mL in the series with Escherichia coli [11]; above 64 µg/mL against Escherichia coli [12]. For the same molecule, the MIC with Escherichia coli [13] is above 64 µg/mL; against Klebsiella pneumoniae [14] it was above 64 µg/mL; against Moraxella catarrhalis, 4 µg/mL (≈ 7 µM); against Serratia marcescens it was above 64 µg/mL; with Pseudomonas aeruginosa, above 64 µg/mL. Also, the CC90 in series [16] came to 2.4 µg/mL (≈ 4.2 µM). Moreover, the CC90 at 48 h in series [17] was 0.3 µg/mL (≈ 0.525 µM).
